Measured values from patent US20090170872A1, “Compounds and Their Pharmaceutical Use” (Orchid Research Laboratories Limited, priority 2005, published 2009).

How the values were obtained:
TNF-α = TNF-α production in LPS-stimulated human whole blood (ELISA); assay type: cell-based; conditions: LPS 4 hours, read-out: % TNF-α Inhibitory Activity in (hPBMC)
Procedure: This assay determines the effect of the test compounds on the production of TNF-α in human whole blood. TNF-α assay is carried out as described by Armin Hatzelmann and Christian Schudt (J Pharm Exp Ther 297, 261, 2001). Compounds are tested for their ability to inhibit the activity of TNF-α in human whole blood. The test compounds are pre-incubated for 15 minutes at 37° C. and then stimulated with Lipopolysaccharide (Salmonella abortus equi, 1 µg/ml) for 4 hours at 37° C. in 5% CO2. The levels of TNF-α are estimated using Enzyme linked Immunosorbent assay performed in a 96 well format as per the procedure of the manufacturer (Cayman Chemical, Ann Arbor, USA).

IL-6 = IL-6 production in LPS-stimulated human whole blood (ELISA); assay type: cell-based; conditions: LPS 4 hours, read-out: % IL-6 Inhibitory Activity (hPBMC)
Procedure: This assay determines the effect of test compounds on the production of IL-6 from human whole blood. Compounds are tested for their ability to downregulate the production of IL-6 in activated whole blood. The test compounds are pre-incubated for 15 minutes at 37° C. and then stimulated with Lipopolysaccharide (Salmonella abortus equi, 1 µg/ml) for 4 hours at 37° C. in 5% CO2. The levels of IL-6 are estimated using Enzyme linked Immunosorbent assay performed in a 96 well format as per the procedure of the manufacturer. (Cayman Chemical, Ann Arbor, USA).

Question: For Cc1nccn1CC1CCc2c(c3ccccc3n2C)/C1=N/O (stereo not shown) [Example 1, (4E)-9-methyl-3-[(2-methyl-1H-imidazol-1-yl)methyl]-1,2,3,9-tetrahydro-4H-carbazol-4-one oxime], which melting point is on record?
Answer: 231 to 233 °C

Question: For Cc1nccn1CC1CCc2c(c3ccccc3n2C)/C1=N/OCc1ccccc1 (stereo not shown) [Example 2, (4E)-9-methyl-3-[(2-methyl-1H-imidazol-1-yl)methyl]-1,2,3,9-tetrahydro-4H-carbazol-4-one O-benzyloxime], which inhibition at 1 µM (TNF-α) is on record?
Answer: 6.87%

Question: What about the inhibition at 10 µM (TNF-α) of the same compound?
Answer: 54.3%

Question: And the inhibition at 1 µM (IL-6)?
Answer: 17.2%

Question: And the inhibition at 10 µM (IL-6)?
Answer: 52.7%

Question: For CCO/N=C1/c2c(n(C)c3ccccc23)CCC1Cn1ccnc1C (stereo not shown) [Example 3, (4E)-9-methyl-3-[(2-methyl-1H-imidazol-1-yl)methyl]-1,2,3,9-tetrahydro-4H-carbazol-4-one O-ethyloxime], which inhibition at 1 µM (TNF-α) is on record?
Answer: 3.42%

Question: What about the inhibition at 10 µM (TNF-α) of the same compound?
Answer: 26.9%

Question: And the inhibition at 1 µM (IL-6)?
Answer: 13.1%

Question: What about the inhibition at 10 µM (IL-6) of the same compound?
Answer: 17.7%

Question: With Cc1nccn1CC1CCc2c(c3ccccc3n2C)/C1=N/OCC(F)(F)F (stereo not shown) [Example 4, (4E)-9-methyl-3-[(2-methyl-1H-imidazol-1-yl)methyl]-1,2,3,9-tetrahydro-4H-carbazol-4-one O-2,2,2-trifluoroethyloxime] as the compound, how does the inhibition at 1 µM (TNF-α) read?
Answer: 19.8%

Question: What about the inhibition at 10 µM (TNF-α) of the same compound?
Answer: 26.1%

Question: For COc1ccc(CO/N=C2/c3c(n(C)c4ccccc34)CCC2Cn2ccnc2C)cc1 (stereo not shown) [Example 5, (4E)-9-methyl-3-[(2-methyl-1H-imidazol-1-yl)methyl]-1,2,3,9-tetrahydro-4H-carbazol-4-one O-(4-methoxybenzyl)oxime], which inhibition at 1 µM (TNF-α) is on record?
Answer: 18.4%

Question: What about the inhibition at 10 µM (TNF-α) of the same compound?
Answer: 52.4%

Question: What does the source list for Cc1nccn1CC1CCc2c(c3ccccc3n2C)/C1=N/OCc1cccnc1 (stereo not shown) [Example 10, (4E)-9-methyl-3-[(2-methyl-1H-imidazol-1-yl)methyl]-1,2,3,9-tetrahydro-4H-carbazol-4-one O-(pyidin-3-ylmethyl)oxime]?
Answer: inhibition at 1 µM (TNF-α): 19.9%; inhibition at 10 µM (TNF-α): 50.5%

Question: For Cc1nccn1CC1CCc2c(c3ccccc3n2C)/C1=N/OCc1ccncc1 (stereo not shown) [Example 11, (4E)-9-methyl-3-[(2-methyl-1H-imidazol-1-yl)methyl]-1,2,3,9-tetrahydro-4H-carbazol-4-one O-(pyridin-4-ylmethyl)oxime], which inhibition at 1 µM (TNF-α) is on record?
Answer: 11.7%

Question: What about the inhibition at 10 µM (TNF-α) of the same compound?
Answer: 47.5%

Question: For Cc1nccn1CC1CCc2c(c3ccccc3n2C)/C1=N/OCc1ccc([N+](=O)[O-])cc1 (stereo not shown) [Example 15, (4E)-9-methyl-3-[(2-methyl-1H-imidazol-1-yl)methyl]-1,2,3,9-tetrahydro-4H-carbazol-4-one O-(4-nitrobenzyl)oxime], which inhibition at 1 µM (TNF-α) is on record?
Answer: 48.1%

Question: What about the inhibition at 10 µM (TNF-α) of the same compound?
Answer: 41.2%

Question: Which inhibition at 1 µM (TNF-α) does the source give for Cc1nccn1CC1CCc2c(c3ccccc3n2C)/C1=N/Oc1ccc(C(F)(F)F)c(Cl)n1 (stereo not shown) [Example 22, (4E)-9-methyl-3-[(2-methyl-1H-imidazol-1-yl)methyl]-1,2,3,9-tetrahydro-4H-carbazol-4-one O-(-chloro-5-trifluoromethyl-pyridin-2-yl)oxime] here?
Answer: 53.1%

Question: What about the inhibition at 10 µM (TNF-α) of the same compound?
Answer: 48%

Question: What does the source list for CC(=O)O/N=C1/c2c(n(C)c3ccccc23)CCC1Cn1ccnc1C (stereo not shown) [Example 25, (4E)-9-methyl-3-[(2-methyl-1H-imidazol-1-yl)methyl]-1,2,3,9-tetrahydro-4H-carbazol-4-one O-acetyloxime]?
Answer: inhibition at 1 µM (IL-6): 22.4%; inhibition at 10 µM (IL-6): 12.5%

Question: For Cc1nccn1CC1CCc2c(c3ccccc3n2C)/C1=N/OC(=O)C(F)(F)F (stereo not shown) [Example 26, (4E)-9-methyl-3-[(2-methyl-1H-imidazol-1-yl)methyl]-1,2,3,9-tetrahydro-4H-carbazol-4-one O-trifluoroacetyloxime], which melting point is on record?
Answer: 148 to 150 °C

Question: What about the inhibition at 1 µM (TNF-α) of the same compound?
Answer: 20.8%

Question: And the inhibition at 10 µM (TNF-α)?
Answer: 2.67%

Question: With Cc1nccn1CC1CCc2c(c3ccccc3n2C)/C1=N/OC(=O)c1ccnc(Cl)c1 (stereo not shown) [Example 27, (4E)-9-methyl-3-[(2-methyl-1H-imidazol-1-yl)methyl]-1,2,3,9-tetrahydro-4H-carbazol-4-one O-2-chloropyridinoyloxime] as the compound, how does the melting point read?
Answer: 172 to 174 °C

Question: What about the inhibition at 1 µM (TNF-α) of the same compound?
Answer: 3.51%

Question: And the inhibition at 10 µM (TNF-α)?
Answer: 9.77%

Question: With Cc1nccn1CC1CCc2c(c3ccccc3n2C)/C1=N/OC(=O)c1ccccc1 (stereo not shown) [Example 30, (4E)-9-methyl-3-[(2-methyl-1H-imidazol-1-yl)methyl]-1,2,3,9-tetrahydro-4H-carbazol-4-one O-benzoyloxime] as the compound, how does the melting point read?
Answer: 179 to 185 °C

Question: For Cc1nccn1CC1CCc2c(c3ccccc3n2C)/C1=N/OC(=O)c1ccc(Cl)cc1 (stereo not shown) [Example 31, (4E)-9-methyl-3-[(2-methyl-1H-imidazol-1-yl)methyl]-1,2,3,9-tetrahydro-4H-carbazol-4-one O-4-chloro-benzoyloxime], which melting point is on record?
Answer: 206 to 212 °C

Question: What about the inhibition at 1 µM (TNF-α) of the same compound?
Answer: 10.8%

Question: What about the inhibition at 10 µM (TNF-α) of the same compound?
Answer: 28.5%

Question: With Cc1nccn1CC1CCc2c(c3ccccc3n2C)/C1=N/OC(=O)c1ccccc1F (stereo not shown) [Example 33, (4E)-9-methyl-3-[(2-methyl-1H-imidazol-1-yl)methyl]-1,2,3,9-tetrahydro-4H-carbazol-4-one O-2-fluorobenzoyloxime] as the compound, how does the melting point read?
Answer: 172 to 175 °C

Question: With Cc1nccn1CC1CCc2c(c3ccccc3n2C)/C1=N/OC(=O)c1ccc(C(F)(F)F)cc1 (stereo not shown) [Example 34] as the compound, how does the melting point read?
Answer: 200 to 203 °C

Question: For COc1ccc(C(=O)O/N=C2/c3c(n(C)c4ccccc34)CCC2Cn2ccnc2C)cc1 (stereo not shown) [Example 35, (4E)-9-methyl-3-[(2-methyl-1H-imidazol-1-yl)methyl]-1,2,3,9-tetrahydro-4H-carbazol-4-one O-4-methoxybenzoyloxime], which melting point is on record?
Answer: 200 to 203 °C

Question: Which results are given for Cc1ccc(C(=O)O/N=C2/c3c(n(C)c4ccccc34)CCC2Cn2ccnc2C)cc1 (stereo not shown) [Example 36, (4E)-9-methyl-3-[(2-methyl-1H-imidazol-1-yl)methyl]-1,2,3,9-tetrahydro-4H-carbazol-4-one O-4-methylbenzoyloxime]?
Answer: melting point: 207 to 212 °C; inhibition at 1 µM (TNF-α): 8.81%; inhibition at 10 µM (TNF-α): 18.8%

Question: Which melting point does the source give for Cc1nccn1CC1CCc2c(c3ccccc3n2C)/C1=N/OC(=O)c1ccc(F)cc1 (stereo not shown) [Example 38, (4E)-9-methyl-3-[(2-methyl-1H-imidazol-1-yl)methyl]-1,2,3,9-tetrahydro-4H-carbazol-4-one O-4-fluorobenzoyloxime] here?
Answer: 192 to 200 °C

Question: What about the inhibition at 1 µM (IL-6) of the same compound?
Answer: 19.1%

Question: And the inhibition at 10 µM (IL-6)?
Answer: 26%

Question: For Cc1nccn1CC1CCc2c(c3ccccc3n2C)/C1=N/OC(=O)c1ccc(Br)o1 (stereo not shown) [Example 45, (4E)-9-methyl-3-[(2-methyl-1H-imidazol-1-yl)methyl]-1,2,3,9-tetrahydro-4H-carbazol-4-one O-5-bromo-2-furanoyloxime], which inhibition at 1 µM (TNF-α) is on record?
Answer: 12.3%

Question: And the inhibition at 10 µM (TNF-α)?
Answer: 32.1%

Question: For Cc1nccn1CC1CCc2c(c3ccccc3n2C)/C1=N/OC(=O)c1ccc([N+](=O)[O-])o1 (stereo not shown) [Example 47, (4E)-9-methyl-3-[(2-methyl-1H-imidazol-1-yl)methyl]-1,2,3,9-tetrahydro-4H-carbazol-4-one O-5-nitro-2-furanoyloxime], which melting point is on record?
Answer: 186 to 190 °C

Question: And the inhibition at 1 µM (TNF-α)?
Answer: 18%

Question: What about the inhibition at 10 µM (TNF-α) of the same compound?
Answer: 26.5%

Question: With Cc1ccoc1C(=O)O/N=C1/c2c(n(C)c3ccccc23)CCC1Cn1ccnc1C (stereo not shown) [Example 48, (4E)-9-methyl-3-[(2-methyl-1H-imidazol-1-yl)methyl]-1,2,3,9-tetrahydro-4H-carbazol-4-one O-3-methyl-2-furanoyloxime] as the compound, how does the melting point read?
Answer: 165 to 170 °C

Question: And the inhibition at 1 µM (TNF-α)?
Answer: 20.7%

Question: And the inhibition at 10 µM (TNF-α)?
Answer: 22.6%

Question: With Cc1ccsc1C(=O)O/N=C1/c2c(n(C)c3ccccc23)CCC1Cn1ccnc1C (stereo not shown) [Example 49, (4E)-9-methyl-3-[(2-methyl-1H-imidazol-1-yl)methyl]-1,2,3,9-tetrahydro-4H-carbazol-4-one O-3-methyl-2-thiophenoyloxime] as the compound, how does the melting point read?
Answer: 177 to 180 °C

Question: Which melting point does the source give for Cc1cc(C(=O)O/N=C2/c3c(n(C)c4ccccc34)CCC2Cn2ccnc2C)no1 (stereo not shown) [Example 50, (4E)-9-methyl-3-[(2-methyl-1H-imidazol-1-yl)methyl]-1,2,3,9-tetrahydro-4H-carbazol-4-one O-5-methyl-3-isoxazoloyloxime] here?
Answer: 154 to 157 °C

Question: For Cc1nccn1CC1CCc2c(c3ccccc3n2C)/C1=N/OC(=O)c1ccsc1 (stereo not shown) [Example 53], which melting point is on record?
Answer: 171 to 175 °C

Question: For Cc1nccn1CC1CCc2c(c3ccccc3n2C)/C1=N/OC(=O)c1ccc(Cl)s1 (stereo not shown) [Example 56, (4E)-9-methyl-3-[(2-methyl-1H-imidazol-1-yl)methyl]-1,2,3,9-tetrahydro-4H-carbazol-4-one O-5-chloro-2-thiophenoyloxime], which melting point is on record?
Answer: 140 to 144 °C

Question: What about the inhibition at 1 µM (TNF-α) of the same compound?
Answer: 26.5%

Question: What about the inhibition at 10 µM (TNF-α) of the same compound?
Answer: 54.3%

Question: Which melting point does the source give for Cc1nccn1CC1CCc2c(c3ccccc3n2C)/C1=N/OC(=O)c1ccoc1 (stereo not shown) [Example 63, (4E)-9-methyl-3-[(2-methyl-1H-imidazol-1-yl)methyl]-1,2,3,9-tetrahydro-4H-carbazol-4-one [(furan-3-yl)carbonyl]oxime] here?
Answer: 158 to 164 °C

Question: With Cc1nccn1CC1CCc2c(c3ccccc3n2C)C1NO (stereo not shown) [Example 64, 4-(hydroxyamino)-9-methyl-3-[(2-methyl-1H-imidazol-1-yl)methyl]-2,3,4,9-tetrahydro-1H-carbazole] as the compound, how does the melting point read?
Answer: 140 to 144 °C
